From patent publication US4471131A, “Novel silyl esters of N-phosphonomethylglycine” (Monsanto Company, priority 1983, dated 1984)

What was measured:
Experiment in all cases: post-emergence herbicidal activity, greenhouse
Format in all cases: in vivo
[1] = test system: Soybean; details: Table III, formulated in anhydrous tetrahydrofuran
In short: (§1)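 Injury scores compare treated plants with untreated control pans at roughly 2 and 4 weeks post-spray. Treatment was a single atomizer application, in a solution or suspension with about 0.4% emulsifier by weight, to greenhouse plants aged two to three weeks.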

[2] = test system: Panicum Spp; details: Table III, formulated in anhydrous tetrahydrofuran
In short: as §1

[3] = test system: Canada Thistle; details: Table II
In short: as §1

[4] = test system: Johnsongrass; details: Table II
In short: as §1

[5] = test system: Hemp Sesbania; details: Table III, formulated in anhydrous tetrahydrofuran
In short: as §1

[6] = test system: Velvetleaf
In short: as §1

[7] = test system: Large Crabgrass; details: Table III, formulated in anhydrous tetrahydrofuran
In short: as §1

[8] = test system: Rice; details: Table III, formulated in anhydrous tetrahydrofuran
In short: as §1

[9] = test system: Common Lambsquarters
In short: as §1

[10] = test system: Cocklebur
In short: as §1

[11] = 2 WAT, 5.6 kg/h, formulated in anhydrous tetrahydrofuran
[12] = 2 WAT, 11.2 kg/h, formulated in anhydrous tetrahydrofuran
[13] = 4 WAT, 11.2 kg/h, formulated in anhydrous tetrahydrofuran
[14] = Table II, 2 WAT, 5.6 kg/h, formulated in anhydrous tetrahydrofuran
[15] = Table II, 2 WAT, 11.2 kg/h, formulated in anhydrous tetrahydrofuran
[16] = Table II, 4 WAT, 11.2 kg/h, formulated in anhydrous tetrahydrofuran
[17] = Table III, 2 WAT, 1.1 kg/h, formulated in anhydrous tetrahydrofuran
[18] = Table III, 2 WAT, 5.6 kg/h, formulated in anhydrous tetrahydrofuran
[19] = Table III, 2 WAT, .28 kg/h, formulated in anhydrous tetrahydrofuran
[20] = Table III, 4 WAT, 5.6 kg/h, formulated in anhydrous tetrahydrofuran

CC(C)(C)[Si](OP(=O)(O)CNCC(=O)O)(c1ccccc1)c1ccccc1 [Ex. 5, Glycine, N-((([(1,1-Dimethylethyl)Diphenylsilyl]oxy)-Hydroxyphosphinyl)-Methyl)-,]
Plant Response Index (L) ([1]; 2 WAT, 1.1 kg/h): 1 (25-49% inhibition) | Plant Response Index (L) ([1]; 2 WAT, 5.6 kg/h): 1 (25-49% inhibition) | Plant Response Index (L) ([1]; 2 WAT, .28 kg/h): 1 (25-49% inhibition) | Plant Response Index (L) ([1]; 4 WAT, 5.6 kg/h): 0 (0-24% inhibition) | Plant Response Index (S) ([2]; 2 WAT, 1.1 kg/h): 0 (0-24% inhibition) | Plant Response Index (S) ([2]; 2 WAT, 5.6 kg/h): 0 (0-24% inhibition) | Plant Response Index (S) ([2]; 2 WAT, .28 kg/h): 0 (0-24% inhibition) | Plant Response Index (S) ([2]; 4 WAT, 5.6 kg/h): 0 (0-24% inhibition) | Plant Response Index (A) ([3]; 2 WAT, 5.6 kg/h): 1 (25-49% inhibition) | Plant Response Index (A) [3, 11]: 0 (0-24% inhibition) | Plant Response Index (A) ([3]; 2 WAT, 11.2 kg/h): 1 (25-49% inhibition) | Plant Response Index (A) [3, 12]: 0 (0-24% inhibition) | Plant Response Index (A) ([3]; 4 WAT, 5.6 kg/h): 1 (25-49% inhibition) | Plant Response Index (A) ([3]; 4 WAT, 11.2 kg/h): 1 (25-49% inhibition) | Plant Response Index (A) [3, 13]: 1 (25-49% inhibition) | Plant Response Index (I) ([4]; 2 WAT, 5.6 kg/h): 0 (0-24% inhibition) | Plant Response Index (I) [4, 11]: 0 (0-24% inhibition) | Plant Response Index (I) ([4]; 2 WAT, 11.2 kg/h): 1 (25-49% inhibition) | Plant Response Index (I) [4, 12]: 0 (0-24% inhibition) | Plant Response Index (I) ([4]; 4 WAT, 5.6 kg/h): 1 (25-49% inhibition) | Plant Response Index (I) ([4]; 4 WAT, 11.2 kg/h): 2 (50-74% inhibition) | Plant Response Index (I) [4, 13]: 0 (0-24% inhibition) | Plant Response Index (R) ([5]; 2 WAT, 1.1 kg/h): 0 (0-24% inhibition) | Plant Response Index (R) ([5]; 2 WAT, 5.6 kg/h): 0 (0-24% inhibition) | Plant Response Index (R) ([5]; 2 WAT, .28 kg/h): 0 (0-24% inhibition) | Plant Response Index (R) ([5]; 4 WAT, 5.6 kg/h): 0 (0-24% inhibition) | Plant Response Index (C) ([6]; Table II, 2 WAT, 5.6 kg/h): 0 (0-24% inhibition) | Plant Response Index (C) [6, 14]: 0 (0-24% inhibition) | Plant Response Index (C) ([6]; Table II, 2 WAT, 11.2 kg/h): 1 (25-49% inhibition) | Plant Response Index (C) [6, 15]: 0 (0-24% inhibition) | Plant Response Index (C) ([6]; Table II, 4 WAT, 5.6 kg/h): 0 (0-24% inhibition) | Plant Response Index (C) ([6]; Table II, 4 WAT, 11.2 kg/h): 0 (0-24% inhibition) | Plant Response Index (C) [6, 16]: 0 (0-24% inhibition) | Plant Response Index (C) [6, 17]: 0 (0-24% inhibition) | Plant Response Index (C) [6, 18]: 0 (0-24% inhibition) | Plant Response Index (C) [6, 19]: 0 (0-24% inhibition) | Plant Response Index (C) [6, 20]: 0 (0-24% inhibition) | Plant Response Index (T) ([7]; 2 WAT, 1.1 kg/h): 0 (0-24% inhibition) | Plant Response Index (T) ([7]; 2 WAT, 5.6 kg/h): 1 (25-49% inhibition) | Plant Response Index (T) ([7]; 2 WAT, .28 kg/h): 0 (0-24% inhibition) | Plant Response Index (T) ([7]; 4 WAT, 5.6 kg/h): 1 (25-49% inhibition) | Plant Response Index (O) ([8]; 2 WAT, 1.1 kg/h): 0 (0-24% inhibition) | Plant Response Index (O) ([8]; 2 WAT, 5.6 kg/h): 0 (0-24% inhibition) | Plant Response Index (O) ([8]; 2 WAT, .28 kg/h): 0 (0-24% inhibition) | Plant Response Index (O) ([8]; 4 WAT, 5.6 kg/h): 0 (0-24% inhibition) | Plant Response Index (E) ([9]; Table II, 2 WAT, 5.6 kg/h): 1 (25-49% inhibition) | Plant Response Index (E) [9, 14]: 0 (0-24% inhibition) | Plant Response Index (E) ([9]; Table II, 2 WAT, 11.2 kg/h): 1 (25-49% inhibition) | Plant Response Index (E) [9, 15]: 0 (0-24% inhibition) | Plant Response Index (E) ([9]; Table II, 4 WAT, 5.6 kg/h): 0 (0-24% inhibition) | Plant Response Index (E) ([9]; Table II, 4 WAT, 11.2 kg/h): 2 (50-74% inhibition) | Plant Response Index (E) [9, 16]: 0 (0-24% inhibition) | Plant Response Index (E) [9, 17]: 0 (0-24% inhibition) | Plant Response Index (E) [9, 18]: 0 (0-24% inhibition) | Plant Response Index (E) [9, 19]: 0 (0-24% inhibition) | Plant Response Index (E) [9, 20]: 1 (25-49% inhibition) | Plant Response Index (B) ([10]; Table II, 2 WAT, 5.6 kg/h): 2 (50-74% inhibition) | Plant Response Index (B) [10, 14]: 1 (25-49% inhibition) | Plant Response Index (B) ([10]; Table II, 2 WAT, 11.2 kg/h): 2 (50-74% inhibition) | Plant Response Index (B) [10, 15]: 1 (25-49% inhibition) | Plant Response Index (B) ([10]; Table II, 4 WAT, 5.6 kg/h): 1 (25-49% inhibition) | Plant Response Index (B) ([10]; Table II, 4 WAT, 11.2 kg/h): 2 (50-74% inhibition) | Plant Response Index (B) [10, 16]: 1 (25-49% inhibition) | Plant Response Index (B) [10, 17]: 1 (25-49% inhibition) | Plant Response Index (B) [10, 18]: 0 (0-24% inhibition) | Plant Response Index (B) [10, 19]: 1 (25-49% inhibition)
